# Where a name gives a salt, the structure may show the parent alone.
# System: Acinetobacter baumannii ATCC 17961
# Test: Antimicrobial susceptibility testing: 90% growth inhibitory concentration (IC90) determination
# Type: cell-based
# Details: ATCC17961, Acinetobacter baumannii ATCC 17961, Iso-Sensitest broth, read-out: ATCC 17961 IC90
# Experimental: Antimicrobial Susceptibility Testing:
# 90% Growth Inhibitory Concentration (IC90) Determination
# The in vitro antimicrobial activity of the compounds was determined according to the following procedure:
# The assay used a 10-points Iso-Sensitest broth medium to measure quantitatively the in vitro activity of the compounds against Acinetobacter baumannii ATCC 17961.
# Stock compounds in DMSO were serially twofold diluted (e.g. range from 50 to 0.097 μM final concentration) in 384 wells microtiter plates and inoculated with 49 μl the bacterial suspension in Iso-Sensitest medium to have a final cell concentration of ˜5×10^(5) CFU/ml in a final volume/well of 50 ul/well. Microtiter plates were incubated at 35±2° C.
# Bacterial cell growth was determined with the measurement of optical density at X=600 nm each 20 minutes over a time course of 16 h. Growth inhibition was calculated during the logarithmic growth of the bacterial cells with determination of the concentration inhibiting 50% (IC50) and 90% (IC90) of the growth.
# Table 1 provides the 90% growth inhibitory concentrations (IC90) in micromoles per liter of the compounds of present disclosure obtained against the strain Acinetobacter baumannii ATCC 17961.
row,SMILES,IC90 [nM]
1,"Cn1c(-c2cn(C3CC3(F)F)nc2C(F)(F)F)cnc1C(=O)Nc1ccc(C(=O)N[C@H]2C[C@H]3CC[C@@H](C2)N3)c(Cl)c1 (mixture of isomers) [Example 346, rac-N-(4-(((1R,3r,5S)-8-azabicyclo[3.2.1]octan-3-yl)carbamoyl)-3-chlorophenyl)-5-(1-(2,2-difluorocyclopropyl)-3-(trifluoromethyl)-1H-pyrazol-4-yl)-1-methyl-1H-imidazole-2-carboxamide formate]",446
2,"Cn1c(-c2c[nH]nc2C(F)(F)F)cnc1C(=O)Nc1ccc(C(=O)N2CCN(C(=O)C3CCNCC3)CC2)c(Cl)c1 [Example 1, N-(3-chloro-4-(4-(piperidine-4-carbonyl)piperazine-1-carbonyl)phenyl)-1-methyl-5-(3-(trifluoromethyl)-1H-pyrazol-4-yl)-1H-imidazole-2-carboxamide hydrochloride]",525
3,"Cn1c(-c2cn(CC(F)(F)F)nc2C(F)(F)F)cnc1C(=O)Nc1ccc(C(=O)N2CCN(C(=O)C3CCNCC3)CC2)c(Cl)c1 [Example 2, N-(3-Chloro-4-(4-(piperidine-4-carbonyl)piperazine-1-carbonyl)phenyl)-1-methyl-5-(1-(2,2,2-trifluoroethyl)-3-(trifluoromethyl)-1H-pyrazol-4-yl)-1H-imidazole-2-carboxamide Hydrochloride]",399
4,"Cn1c(-c2cn(CCC(N)=O)nc2C(F)(F)F)cnc1C(=O)Nc1ccc(C(=O)N2CCN(C(=O)C3CCNCC3)CC2)c(Cl)c1 [Example 4, 5-(1-(3-amino-3-oxopropyl)-3-(trifluoromethyl)-1H-pyrazol-4-yl)-N-(3-chloro-4-(4-(piperidine-4-carbonyl)piperazine-1-carbonyl)phenyl)-1-methyl-1H-imidazole-2-carboxamide]",4060
5,"Cn1c(-c2cn(CCC#N)nc2C(F)(F)F)cnc1C(=O)Nc1ccc(C(=O)N2CCN(C(=O)C3CCNCC3)CC2)c(Cl)c1 [Example 5, N-(3-chloro-4-(4-(piperidine-4-carbonyl)piperazine-1-carbonyl)phenyl)-5-(1-(2-cyanoethyl)-3-(trifluoromethyl)-1H-pyrazol-4-yl)-1-methyl-1H-imidazole-2-carboxamide]",1040
6,"Cn1c(-c2cn(CC#CCO)nc2C(F)(F)F)cnc1C(=O)Nc1ccc(C(=O)N2CCN(C(=O)C3CCNCC3)CC2)c(Cl)c1 [Example 6, N-(3-chloro-4-(4-(piperidine-4-carbonyl)piperazine-1-carbonyl)phenyl)-5-(1-(4-hydroxybut-2-yn-1-yl)-3-(trifluoromethyl)-1H-pyrazol-4-yl)-1-methyl-1H-imidazole-2-carboxamide hydrochloride]",676
7,"C=CCn1cc(-c2cnc(C(=O)Nc3ccc(C(=O)N4CCN(C(=O)C5CCNCC5)CC4)c(Cl)c3)n2C)c(C(F)(F)F)n1 [Example 7, 5-(1-allyl-3-(trifluoromethyl)-1H-pyrazol-4-yl)-N-(3-chloro-4-(4-(piperidine-4-carbonyl)piperazine-1-carbonyl)phenyl)-1-methyl-1H-imidazole-2-carboxamide hydrochloride]",358
8,"CC#CCn1cc(-c2cnc(C(=O)Nc3ccc(C(=O)N4CCN(C(=O)C5CCNCC5)CC4)c(Cl)c3)n2C)c(C(F)(F)F)n1 [Example 8, 5-(1-(but-2-yn-1-yl)-3-(trifluoromethyl)-1H-pyrazol-4-yl)-N-(3-chloro-4-(4-(piperidine-4-carbonyl)piperazine-1-carbonyl)phenyl)-1-methyl-1H-imidazole-2-carboxamide hydrochloride]",327
9,"C#CC(C)n1cc(-c2cnc(C(=O)Nc3ccc(C(=O)N4CCN(C(=O)C5CCNCC5)CC4)c(Cl)c3)n2C)c(C(F)(F)F)n1 (stereo not shown) [Example 9, 5-(1-(but-3-yn-2-yl)-3-(trifluoromethyl)-1H-pyrazol-4-yl)-N-(3-chloro-4-(4-(piperidine-4-carbonyl)piperazine-1-carbonyl)phenyl)-1-methyl-1H-imidazole-2-carboxamide hydrochloride]",320
10,"Cn1c(-c2cn(C3CCC3)nc2C(F)(F)F)cnc1C(=O)Nc1ccc(C(=O)N2CCN(C(=O)C3CCNCC3)CC2)c(Cl)c1 [Example 10, N-(3-chloro-4-(4-(piperidine-4-carbonyl)piperazine-1-carbonyl)phenyl)-5-(1-cyclobutyl-3-(trifluoromethyl)-1H-pyrazol-4-yl)-1-methyl-1H-imidazole-2-carboxamide hydrochloride]",339
11,"Cn1c(-c2cn(CCF)nc2C(F)(F)F)cnc1C(=O)Nc1ccc(C(=O)N2CCN(C(=O)C3CCNCC3)CC2)c(Cl)c1 [Example 11, N-(3-chloro-4-(4-(piperidine-4-carbonyl)piperazine-1-carbonyl)phenyl)-5-(1-(2-fluoroethyl)-3-(trifluoromethyl)-1H-pyrazol-4-yl)-1-methyl-1H-imidazole-2-carboxamide hydrochloride]",466

# The remaining lines, values ahead:
row,IC90 [nM],SMILES
1,422,"Cn1c(-c2cn(C3CC3(F)F)nc2C(F)(F)F)cnc1C(=O)Nc1ccc(C(=O)NC2(C)CCN(C(=O)N[C@H]3C[C@@H](N)C3)CC2)c(Cl)c1 (mixture of isomers) [Example 333, rac-N-((1s,3s)-3-aminocyclobutyl)-4-(2-chloro-4-(5-(1-(2,2-difluorocyclopropyl)-3-(trifluoromethyl)-1H-pyrazol-4-yl)-1-methyl-1H-imidazole-2-carboxamido)benzamido)-4-methylpiperidine-1-carboxamide formate]"
2,446,"Cn1c(-c2cn(C3CC3(F)F)nc2C(F)(F)F)cnc1C(=O)Nc1ccc(C(=O)NC2CC3CN(C(=O)N[C@H]4CNC[C@@H]4O)CC32)c(Cl)c1 (mixture of isomers) [Example 347, rac-6-(2-chloro-4-(5-(1-(2,2-difluorocyclopropyl)-3-(trifluoromethyl)-1H-pyrazol-4-yl)-1-methyl-1H-imidazole-2-carboxamido)benzamido)-N-((3S,4S)-4-hydroxypyrrolidin-3-yl)-3-azabicyclo[3.2.0]heptane-3-carboxamide formate]"
3,450,"COC1CN(C(=O)N[C@H]2CNC[C@@H]2O)CC1NC(=O)c1ccc(NC(=O)c2ncc(-c3cn(C4CC4(F)F)nc3C(F)(F)F)n2C)cc1Cl (mixture of isomers) [Example 350, rac-N-(3-chloro-4-((trans-1-(((3R,4R)-4-hydroxypyrrolidin-3-yl)carbamoyl)-4-methoxypyrrolidin-3-yl)carbamoyl)phenyl)-5-(1-(2,2-difluorocyclopropyl)-3-(trifluoromethyl)-1H-pyrazol-4-yl)-1-methyl-1H-imidazole-2-carboxamide formate]"
4,467,"Cn1c(-c2cn(CC3CC3)nc2C(F)(F)F)cnc1C(=O)Nc1ccc(C(=O)N2CCN(C(=O)C3[C@H]4CNC[C@@H]34)CC2)c(Cl)c1 (mixture of isomers) [Example 358, rac-N-(4-(4-((1R,5S)-3-azabicyclo[3.1.0]hexane-6-carbonyl)piperazine-1-carbonyl)-3-chlorophenyl)-5-(1-(cyclopropylmethyl)-3-(trifluoromethyl)-1H-pyrazol-4-yl)-1-methyl-1H-imidazole-2-carboxamide hydrochloride]"
5,483,"Cn1c(-c2cn(C3CC3(F)F)nc2C(F)(F)F)cnc1C(=O)Nc1ccc(C(=O)NCC2C3CN(C(=O)N[C@H]4CNC[C@@H]4O)CC23)c(Cl)c1 (mixture of isomers) [Example 365, rac-6-((2-chloro-4-(5-(1-(2,2-difluorocyclopropyl)-3-(trifluoromethyl)-1H-pyrazol-4-yl)-1-methyl-1H-imidazole-2-carboxamido)benzamido)methyl)-N-((3S,4S)-4-hydroxypyrrolidin-3-yl)-3-azabicyclo[3.1.0]hexane-3-carboxamide formate]"
6,100,"Cn1c(-c2cn(CC3CC3(F)F)nc2C(F)(F)F)cnc1C(=O)Nc1ccc(C(=O)N[C@H]2[C@@H]3CN(C(=O)N[C@@H]4CNC[C@H]4O)C[C@@H]32)c(Cl)c1 (mixture of isomers) [Example 385, rac-(1R,5S,6s)-6-(2-chloro-4-(5-(1-((2,2-difluorocyclopropyl)methyl)-3-(trifluoromethyl)-1H-pyrazol-4-yl)-1-methyl-1H-imidazole-2-carboxamido)benzamido)-N-((3S,4S)-4-hydroxypyrrolidin-3-yl)-3-azabicyclo[3.1.0]hexane-3-carboxamide formate]"
7,426,"Cn1c(-c2cn(C3CC3(F)F)nc2C(F)(F)F)cnc1C(=O)Nc1ccc(C(=O)NC2CCN(C(=O)N[C@@H]3CNC[C@H]3O)CC2)c(Cl)c1 (relative stereo) [Example 337, 4-(2-chloro-4-(5-(1-(2,2-difluorocyclopropyl)-3-(trifluoromethyl)-1H-pyrazol-4-yl)-1-methyl-1H-imidazole-2-carboxamido)benzamido)-N-(trans-4-hydroxypyrrolidin-3-yl)piperidine-1-carboxamide]"

# Same assay, conditions: Acinetobacter baumannii, ATCC17961, read-out: ATCC 17961 IC90, Acinetobacter baumannii ATCC 17961, Iso-Sensitest broth
row,SMILES,IC90 [nM]
1,"Cn1c(-c2cn(C3CC3(F)F)nc2C(F)(F)F)cnc1C(=O)Nc1ccc(C(=O)N2CCC(F)(CNC(=O)N[C@H]3CNC[C@@H]3O)CC2)c(Cl)c1 (relative stereo) [Example 179, N-(3-chloro-4-(4-fluoro-4-((3-(trans-4-hydroxypyrrolidin-3-yl)ureido)methyl)piperidine-1-carbonyl)phenyl)-5-(1-(2,2-difluorocyclopropyl)-3-(trifluoromethyl)-1H-pyrazol-4-yl)-1-methyl-1H-imidazole-2-carboxamide Formate]",192
